Data as given in the NIST ThermoML archive (doi:10.1016/j.jct.2011.08.009).
Where “and” joins values, the source holds several entries; their conditions need not be identical. Equal values may be shown once.

Settings: Liquid, Closed cell (Static) method

O [water]
Settings	vapor or sublimation pressure [kPa]
273.15 K	0.5817
283.15 K	1.186
293.15 K	2.281
303.15 K	4.172
313.15 K	7.294
323.15 K	12.25
333.15 K	19.84
343.15 K	31.11
353.15 K	47.37
363.15 K	70.25

CCC(C)N (stereo unspecified) [2-butanamine]
Settings	vapor or sublimation pressure
274.06 K	6.81 kPa
274.09 K	6.804 kPa
283.91 K	11.46 kPa
293.15 K	18.43 kPa
293.88 K	19.21 kPa
303.15 K	29.11 kPa
303.84 K	30.04 kPa and 30.03 kPa
313.15 K	44.25 kPa
313.81 K	45.47 kPa and 45.38 kPa
323.15 K	65.05 kPa
323.92 K	66.77 kPa
333.15 K	92.82 kPa
333.91 K	95.07 kPa and 95.08 kPa and 95.1 kPa
343.15 K	128.99 kPa
343.86 K	132.08 kPa and 132.05 kPa
353.15 K	175.09 kPa
353.9 K	179.16 kPa and 178.99 kPa
363.15 K	232.69 kPa

NC1CCCCC1 [cyclohexylamine]
Settings	vapor or sublimation pressure
273.15 K	0.2306 kPa
274.3 K	0.2512 kPa
283.15 K	0.4646 kPa
283.86 K	0.4861 kPa
293.15 K	0.8833 kPa
293.83 K	0.9213 kPa
293.86 K	0.9213 kPa
293.88 K	0.9229 kPa and 0.9217 kPa
303.15 K	1.596 kPa
303.79 K	1.661 kPa
303.82 K	1.66 kPa
303.84 K	1.661 kPa
313.15 K	2.756 kPa
313.79 K	2.852 kPa
313.81 K	2.854 kPa
323.15 K	4.573 kPa
323.92 K	4.755 kPa
323.97 K	4.757 kPa
323.99 K	4.757 kPa and 4.758 kPa
333.15 K	7.32 kPa
334 K	7.563 kPa
343.15 K	11.35 kPa
344 K	12.08 kPa
353.15 K	17.98 kPa
354.06 K	17.65 kPa
363.15 K	25.06 kPa
364.1 K	25.96 kPa
364.13 K	25.94 kPa and 25.96 kPa
